The values that follow come from EPA's ToxValDB 9.5 (doi:10.2903/j.efsa.2020.6227).

One data set relates to Bibionidae. The settings on record: chronic/long-term; duration: 28 days.
In the next data set the test system is Folsomia candida. As to conditions: chronic/long-term; duration: 28 days; reproduction.
For a further data set, the system named is Tagia sp. The settings on record: chronic/long-term; duration: 56 days; reproduction.
The test system of another data set is Neomysis kadiakensis. The settings on record: acute; duration: 96 hours; mortality.
The next data set concerns Daphnia magna. The settings on record: chronic/long-term; duration: 21 days.
In another data set the test system is Apis mellifera. The settings on record: acute, duration: 24 hours, mortality.
A further data set has as its system Anas platyrhynchos. As to conditions: oral.

In general, NOAEL refers to the highest tested level that showed no adverse finding. For orientation: LC50 means the concentration lethal to half of the exposed cells or organisms. Consider `CC[C@H](C)[C@H]1O[C@]2(C=C[C@@H]1C)C[C@@H]1C[C@@H](C/C=C(\C)[C@@H](O[C@H]3C[C@H](OC)[C@@H](O[C@H]4C[C@H](OC)[C@@H](O)[C@H](C)O4)[C@H](C)O3)[C@@H](C)/C=C/C=C3\CO[C@@H]4[C@H](O)C(C)=C[C@@H](C(=O)O1)[C@]34O)O2.CO[C@H]1C[C@H](O[C@H]2[C@H](C)O[C@@H](O[C@@H]3/C(C)=C/C[C@@H]4C[C@@H](C[C@]5(C=C[C@H](C)[C@@H](C(C)C)O5)O4)OC(=O)[C@@H]4C=C(C)[C@@H](O)[C@H]5OC/C(=C\C=C\[C@@H]3C)[C@]54O)C[C@@H]2OC)O[C@@H](C)[C@@H]1O` [Abamectin], for which the NOEC with Bibionidae is 3.3 µg/kg; with Folsomia candida it was 0.04 mg/kg; with Oncorhynchus mykiss (chronic/long-term, duration: 72 days), 0.52 µg/L; with Tagia sp. it was less than 0.036 mg/kg; in the data set with Daphnia magna it was 0.0067 µg/L; with Anas platyrhynchos (reproductive, feed) it was 6 mg/kg. Further, the LD50 was found to be 8.7 mg/kg-day with Rattus norvegicus (acute, oral, M, mortality); 0.001 µg/piece with Apis mellifera (dermal); 0.004 µg/piece with Apis mellifera (oral, unspecified); 26 mg/kg-day with Anas platyrhynchos (acute, unspecified, mortality). The same compound displayed an NOAEL with Rattus norvegicus (developmental, development) of 0.12 mg/kg-day. The LC50 in the data set on Oncorhynchus mykiss (acute, duration: 96 hours, mortality) was found to be 2.5 ng/mL; with Neomysis kadiakensis, 0.02 ng/mL.
